Source: paper PMC11597353, “Synthesis of Novel Gefitinib-Conjugated 1,2,3-Triazole Derivatives and Their Effect of Inducing DNA Damage and Apoptosis in Tumor Cells” (Molecules, 2024)

What was measured:
HepG2 cells [1] = test: DAPI staining for apoptotic morphology; type: cell-based, human; details: HepG2, 2, 4, 8 μM, 48 h
Description: To confirm the apoptosis-inducing activity of 11m and 11t in liver cancer cells, HepG2 cells were treated with different concentrations of compounds 11m and 11t for 48 h, followed by DAPI staining.
HepG2 cells were seeded in 48-well plates and incubated for 24 h, then treated with different concentrations of 11m and 11t (2, 4, and 8 μM) for 48 h. After removing the original culture medium, the cells were washed with PBS and fixed with 4% paraformaldehyde at room temperature for 20 min. After washing with PBS, the cells were stained with DAPI (10 μg/mL) in the dark at room temperature for 5 min. After washing with PBS, apoptotic morphological changes were observed using a fluorescence microscope.

HepG2 cells [2] = test: CCK8 cell viability / IC50 assay on HepG2 cells; details: for % Cell Viability (10 μM): 72 h; for IC50: read-out: HepG2, IC50 (μM) 72 h
p-H2AX in HepG2 cells = test: DNA damage immunofluorescence and Western blot of p-H2AX; type: cell-based, human; details: HepG2, 2, 4, 8 μM
Description: Previous studies have reported that the phosphorylation of H2AX is a highly specific and sensitive molecular marker of DNA damage. To determine whether the inhibitory effects of compounds 11m and 11t on HepG2 cells are related to p-H2AX, we conducted immunofluorescence and Western blot analyses.
HepG2 cells were seeded in laser confocal culture dishes (Nest, Wuxi, China) and incubated for 24 h, followed by treatment with 11m or 11t (2, 4, and 8 μM) for 24 h. After washing with PBS, cells were fixed with 4% paraformaldehyde at room temperature for 20 min. After washing with PBS, cells were permeabilized with 0.5% Triton X-100 for 20 min, followed by further washing with PBS. Cells were then blocked with goat serum at room temperature for 1 h, followed by incubation with p-H2AX (Cell Signaling Technology, Beverly, MA, USA) at a dilution of 1:500 overnight at 4 °C. After washing with PBS, cells were incubated with Cy3 (Proteintech, Wuhan, China) at a dilution of 1:100 in the dark at room temperature for 1 h. After washing with PBS, nuclei were stained with DAPI for 5 min. Cells were observed and imaged using an oil immersion lens under a laser confocal microscope (Nikon, Tokyo, Japan).
HepG2 cells were seeded in 6-well plates and incubated for 24 h. […] Protein supernatants were mixed with loading buffer, denatured at 100 °C for 10 min, and quantified using BCA. […]

Kunming mice = test: Acute toxicity test in mice; type: in vivo
Description: To further assess the safety of the compounds, we conducted an acute toxicity experiment on mice.
Liver function was evaluated by measuring serum glutamic pyruvic transaminase (GPT) and glutamic oxaloacetic transaminase (GOT) levels (Figure 10C). GPT and GOT are commonly used indicators for assessing liver function, reflecting physiological and pathological changes in the liver. Elevated serum levels of GPT and GOT indicate damage to liver cells or mitochondria. […] This provides additional evidence for the high safety of the compound and experimental data for clinical drug safety (p > 0.05).
Six 5-week-old, SPF-grade, healthy, male Kunming mice (31.13 ± 1.13 g) were purchased from Henan Skibest Biotechnology Co., Ltd. (Anyang, China) (License No.: SCXK (Yu) 2020-0005). They were housed at the SPF animal center of the School of Basic Medicine and Forensic Science, Henan University of Science and Technology, with normal solid food and drinking water provided, and a 12 h light–dark cycle each day. After one week of acclimatization, the mice were randomly divided into two groups: the control group and the treatment group (11t), which were administered a single gavage of the corresponding volume of solvent and drug (drug concentration: 800 mg/kg; drug solvent: 10% DMSO + 40% PEG300 + 5% Tween 80 + 45% saline) at a dosage of 0.1 mL/10 g. After administration, the mice’s activity was monitored daily, and their weight was recorded. After 14 days, blood was collected via the eye and the mice were euthanized by cervical dislocation. The heart, liver, spleen, lungs, and kidneys were extracted, rinsed with saline, and the surface moisture was absorbed with filter paper. The weight of all organs was measured using an electronic balance. The organ coefficient was calculated as organ weight/body weight × 100. Blood samples were left at room temperature for 1 h, then centrifuged at 2500 rpm for 20 min to measure liver function indicators GPT and GOT (Nanjing Jiancheng Bioengineering Institute, Nanjing, China). After weighing the organs, they were fixed in 4% tissue fixative for 24 h, dehydrated, cleared, embedded in paraffin, and stained with HE for microscopic observation of the tissues.

[3] = mice, single gavage 800 mg/kg, day 14

SMILES | melting point [°C] | apoptotic morphological changes (DAPI staining) (HepG2 cells [1]) | % Cell Viability (10 μM) (HepG2 cells [2]) [%] | IC50 (HepG2 cells [2]) [µM] | expression of p-H2AX (p-H2AX in HepG2 cells) | toxicity in mice (Kunming mice; acute toxicity, 800 mg/kg gavage) | body weight vs control group (Kunming mice; mice, single gavage 800 mg/kg, 14 days, p > 0.05) | histological analysis (H&E) of hearts, livers, spleens, lungs, and kidneys (Kunming mice; [3]) | organ indices of the heart, liver, spleen, lungs, and kidneys vs control group (Kunming mice; [3]) | organ morphological examination (Kunming mice; [3]) | serum GPT and GOT (biochemical indicators) vs control group (Kunming mice; mice, single gavage 800 mg/kg, day 14, p > 0.05)
COc1cc2ncnc(Nc3cccc(-c4cn(Cc5ccc(I)cc5)nn4)c3)c2cc1OCCCN1CCOCC1 [Compound 11m, N-(3-(1-(4-iodobenzyl)-1H-1,2,3-triazol-4-yl)phenyl)-7-methoxy-6-(3-morpholinopropoxy)quinazolin-4-amine] | 185 to 186 | typical apoptotic characteristics | 5.86 ± 0.04 | 3.08 ± 0.37 | increased | – | – | – | – | – | –
COc1cc2ncnc(Nc3cccc(-c4cn(Cc5cccc(I)c5)nn4)c3)c2cc1OCCCN1CCOCC1 [Compound 11t, N-(3-(1-(3-iodobenzyl)-1H-1,2,3-triazol-4-yl)phenyl)-7-methoxy-6-(3-morpholinopropoxy)quinazolin-4-amine] | – | typical apoptotic characteristics | 5.22 ± 0.36 | 3.6 ± 0.53 | increased | low toxicity | no statistically significant differences | no significant toxic characteristics | no statistically significant differences | No pathological morphology was observed | no statistically significant differences
